Molecular target: T1, apo-D-amino acid oxidase (Sus scrofa, UniProt P00371)
T1 construct: Apo-D-amino acid oxidase extracted and purified from the porcine kidneys is known and can be suitably used; purchased Calzyme Inc. 176A0025
Experiment: Comparison of reactivity between various D-amino acids as substrates of FAD-reactivated apo-D-amino acid oxidase (peroxidase/DA-64 colorimetric, Hitachi 7170)
Format: biochemical, porcine
Conditions: 5 mM D-amino acid in reagent 1, 50 mM Tris-HCl pH 8.3; 10 U/ml apo-D-amino acid oxidase, FAD sample; 700 nm; D-valine = 100
Procedure: Reagent 1 containing 50 mM Tris-HCl (pH 8.3), 5 mM DA-64 (Wako Pure Chemical Industries), and 5 mM D-amino acid, reagent 2 containing 10 U/ml apo-D-amino acid oxidase (Calzyme Inc., Catalog No. 176A0025) and 5 U/ml peroxidase, and aqueous FAD solution as a sample were applied to a Hitachi 7170 automated analyzer at a setting of two-point end-mode and using a parameters of 7 μl for a sample, 180 μl for R1, 90 μl for R2, and 700 nm for a wavelength for determination.
As in 1), the activity of the reconstituted apoenzyme was confirmed. Assays only varying types of the D-amino acids were then performed. As D-amino acids, D-forms of Ala, Met, Val, Ile, Phe, Pro, Ser, Thr, Asn, Leu, Tyr, Trp, Asp, Glu, His, and Arg were each used. The percent reactivities of the above-mentioned various D-amino acids were calculated to the value of D-valine which was defined as 100.

T1 sequence (P00371 whole entry): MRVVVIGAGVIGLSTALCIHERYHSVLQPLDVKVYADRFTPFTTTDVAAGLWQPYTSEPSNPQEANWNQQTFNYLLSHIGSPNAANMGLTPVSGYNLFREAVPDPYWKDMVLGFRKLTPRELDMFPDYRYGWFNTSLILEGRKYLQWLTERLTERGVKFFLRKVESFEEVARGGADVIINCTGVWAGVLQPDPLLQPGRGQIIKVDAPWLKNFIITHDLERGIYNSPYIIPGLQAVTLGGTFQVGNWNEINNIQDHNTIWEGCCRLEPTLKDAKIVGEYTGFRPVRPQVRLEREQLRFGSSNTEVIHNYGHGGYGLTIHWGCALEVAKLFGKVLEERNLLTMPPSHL

Row | Structure (SMILES) | percent reactivity of D-amino acid (relative to D-valine defined as 100) [%]
1 | N[C@H](Cc1ccccc1)C(=O)O [D-Phe] | 170
2 | C[C@@H](N)C(=O)O [D-Ala] | 136
3 | CSCC[C@@H](N)C(=O)O [D-Met] | 322
4 | CC(C)[C@@H](N)C(=O)O [D-Val, D-valine] | 100
5 | N[C@H](Cc1ccc(O)cc1)C(=O)O [D-Tyr, D-tyrosine] | 159
6 | CC(C)C[C@@H](N)C(=O)O [D-Leu] | 97
7 | N[C@H](CO)C(=O)O [D-Ser] | 117
8 | O=C(O)[C@H]1CCCN1 [D-Pro, D-proline] | 374
9 | CC[C@@H](C)[C@@H](N)C(=O)O [D-Ile] | 178
10 | NC(N)=NCCCC(N)C(=O)O [D-Arg] | 8
11 | N[C@H](Cc1c[nH]c2ccccc12)C(=O)O [D-Trp] | 14

Reference: patent US7759072B2, “Immunoassay method and reagent therefor” (Sekisui Medical Co., Ltd., priority 2005, dated 2010)
